In patent US20240201173A1, “Enamel Repair Visualization and Quantification” (Colgate-Palmolive Company, priority 2022, published 2024):

How the values were obtained:
[1] = Single-block enamel repair evaluation, solution samples (Keyence microscope step height, light microscopy, SEM); parameters: species or system bovine
Experimental: The left half of the block (“sound”) is covered using an acid-resistant nail polish, which is then allowed to air dry. The right half of the block (“damaged” and “repaired”) is then treated with 1% citric acid (pH 3.6) for ten minutes to etch the surface. After the treatment, the surface of the block is rinsed with deionized water. The top right corner of the block (“damaged”) is then covered with the same acid-resistant nail polish and air dried. The test formulation is then applied to the bottom right corner of the block (“repaired”), for example, for a ten-minute treatment, followed by rinsing with deionized water. Following the treatment, the enamel blocks are immersed in a Remineralization Solution (0.2205 g/L CaCl2·2H2O, 0.1225 g/L KH2PO4, 9.6915 g/L KCl and 4.766 g/L HEPEs buffer, pH adjusted to 7 with NaOH) overnight at 37° C., and the process repeated for 2-4 days (the blocks immersed daily in fresh remineralization solution). Following this, the blocks are removed, rinsed with deionized water and air dried. The nail polish covers are then removed using acetone solvent, and the surface of the enamel blocks is visualized, for example, by light microscopy, confocal laser scanning microscopy, scanning probe microscopy, or scanning electron microscopy.
A Keyence microscope is used to capture the surface morphology and to measure the step height of the treated samples. A Phenom ProX Desktop scanning electron microscope is used to observe the repaired enamel crystals. Bovine enable blocks are treated with either water, the sodium fluoride solution, or the 10 mg/mL ePL+0.06 mg/mL malic acid solution (Solution A above).

[2] = Knoop microhardness repair of acid-etched bovine enamel blocks after treatment and remineralization; conditions: 1% citric acid etch 10 min, 40 microliters for ten minutes at room temperature, Remineralization Solution overnight at 37° C.
Experimental: Bovine enamel blocks are obtained from sound bovine incisors without defects. The labial surface of the bovine teeth is cut to provide enamel specimens of about 3×3×2 mm in size. The enamel layer is about 1 mm thick and the dentin left in the specimen is about 1 mm thick.
Etched enamel samples are prepared by treatment with 1% aqueous citric acid (pH 3.6) for 10 minutes, followed by rinsing with deionized water. Three bovine enamel blocks are prepared, one for the test solution, one for a positive control solution, and one for a negative control solution.
Etched bovine enamel samples are treated with 40 microliters of the polyelectrolyte solution A, with sodium fluoride solution, or with water, for ten minutes at room temperature. […]
Knoop Hardness (KHN) is a measure of hardness of a material calculated by measuring the indentation produced by a diamond tip that is pressed onto the surface of a sample. Using a calibrated microscope, the area of the impression can be determined, and from the area of the indentation (D) in […], and the applied load (F) in kilograms force, the Knoop Hardness is calculated as: KHN=14.229(F/D^2). […]
KHN is determined using Knoop microhardness tester. […] A value for Percentage of Hardness Repair (% HR) is calculated according to the following formula: […]

With [F-].[Na+] [NaF Control, sodium fluoride] the “% Repair (Step height)” value ([1]; 1% citric acid etch 10 min, ten-minute treatment, remineralization repeated 2-4 days) was 65.3%, the “enamel surface gaps, scanning electron microscopy” value ([1]; gaps from acid etching) was “some healing” and the “surface elevation, 3-D Keyence photomicrographs (FIG. 3)” value ([1]; height vs sound enamel side) was “do not restore the enamel to the original height”. The “surface morphology of repaired side, light microscopy (FIG. 2)” value ([1]; repaired vs damaged side of same block) was “a clear interface between “damaged” and “repaired” sides is observed”, the “% HR (Percentage of Hardness Repair)” value [2] was 41.0% and the “% HR (Percentage of Hardness Repair)” value ([2]; listed as sodium fluoride) was “did not reach half of original hardness levels”.
